According to patent US8012929B2, “Peptides directed for diagnosis and treatment of amyloid-associated diseases” (Tel Aviv University Future Technology Development L.P., priority 2002, dated 2011):
Square brackets hold non-standard residues; d marks the D form. Peptide text beside a SMILES is read from it. Aib = CC(C)(N)C(=O)O

Legend:
[1] = test system: hAPP(751) transgenic mice; conditions: mouse, in vivo, ip
Method: Experimental design—20 (+3 reserves) 4.5 month (±1 week) old male hAPP(751) transgenic mice were divided into 2 treatment groups, a control group—treated with vehicle and an experimental group—treated with D-Trp-Aib. Animals were treated for 120 days with 3 intraperitoneal (i.p.) injections of 1 mg per animal per day 7 of the original 20 animals died during the 4-month experimental period, 4 of them from the control group.

[2] = Serum stability, mouse serum (HPLC); format: in vitro ADME; conditions: 37° C., 2 and 5 hours
Source text: D-Trp-Aib serum stability—Regardless of administration route, all drugs penetrate and distribute in the body via the blood system. This milieu is based not only on cells and buffering compounds, but also on proteins, carbohydrates, lipid-protein micelles, etc. Serum proteins mainly contain carrier proteins, such as albumin, but also contain many enzymes that might treat the drug as a substrate. Thus, the susceptibility of any drug entering this environment should be evaluated. The stability of D-Trp-Aib spiked into serum was evaluated by analysis of intact sample concentrations at different time points. D-Trp-Aib (250 μg/ml PBS) was incubated with mouse (Harlan Biotech, Israel) or human (obtained from Sheba medical center, Tel Hashomer, Israel) sera or PBS (1:1, 37° C.), and aliquots were analyzed by HPLC analysis at times 0, 2 and 5 hrs. The reaction was stopped and precipitation was effected by the addition of acetonitrile (Baker, Phillipsburg N.J.) and 10% TCA. Following centrifugation (10,000 g, 5 min), Supernatant was transferred to HPLC analysis. Mean amounts of D-Trp-Aib (μg)±s.e.m. were calculated by an internal calibration curve. […]

[3] = test system: neuronal primary cell cultures; assay: Neurotoxicity (5% assay), MTT and Calcein-AM; format: cell-based
Method: Neurotoxicity (5% assay)—Neural cells were grown in Poly-D-Lysine coated 96-well plates. Eighty μl medium containing 48.000 cells/well were added to each well plate containing 80 μl T.I. in the appropriate concentrations, or nutrition medium (control). Plates were kept at 37° C., 95% humidity and 5% CO2. Neurons, which begin to extend processes after a few hours in culture, were maintained in the same medium without change or addition of media for 8 days, until the end of the experiments. For Neurotoxicity, the MTT-assay was effected using a plate-reader (570 nm) for determining the culture viability, as described in Example 49. The MTT assay is based on the ability of a dehydrogenase enzyme from an active mitochondiria to produce a dark blue formazan product from the pale yellow MTT substrate, by cleaving the MTT tetrazolium rings. Since in the MTT-assay sometimes interference between the substance/drug applied and the generation of formazane crystals can be seen, it is necessary to introduce a second evaluation system. Therefore, the viability of cultures was determined with the Calcein-AM assay as well, as described in Neri et al., [Clin. Diagn. Lab Immunol. 1131-1135 (2001)], using an automated fluorescence plate-reader (485/535 nm). Calcein AM is a widely used green fluorescent cell marker, which is membrane-permeant and thus can be introduced into cells via incubation. […]

[4] = molecular target: CYP450 3A4 (Homo sapiens, UniProt P08684); assay: Human CYP450 screen 3A4; format: in vitro ADME
Source text: For the metabolic stability assay, Human cytochrom P450 (CYP450) screens were used. The cytochrom P450 isoenzymes, which are located in the intestines, liver, lung, kidney and brain, are involved in important drug interactions. Drug metabolism occurs in two phases—Phase I involves oxidation, reduction, and hydrolysis. Phase II involves synthesis and conjugation. The CYP 450 isoenzymes are involved in Phase I oxidative reactions. CYP 450 interactions generally result from one of two processes—Induction, where a substance stimulates the synthesis of the enzyme and metabolic capacity is increased, and inhibition, where competitive binding at an enzyme's binding site(s) occurs. A drug with a high affinity for an enzyme will slow the metabolism of any low affinity drug. CYP 3A3/4 is the most abundant CYP 450 isoenzyme in humans and is responsible for the metabolism of the widest range of drugs/substances. (CYP450) screens used were 1A2, 2C9, 2C19, 2D6 and 3A4.

[5] = in vivo; conditions: CD-1, mouse
Method: Animals were treated following a 4 hour fast, with water ad libitum, and fed 2 hours after administration. Thereafter, animals were sacrificed at different time intervals (5 minutes-8 hours; 3 animals in each group, at every time interval were sacrificed by sodium pentobarbital anesthesia followed by exanguination) and blood (plasma), brain, liver, kidney and pancreas were collected and later analyzed. Plasma and brain tissue samples were analyzed by high-performance liquid chromatography with tandem mass spectrometry (LC-MS/MS).
In case of brain tissue, only AUC0-4 was calculated. All parameters were calculated using the software PK solutions Version 2.0 for Noncompartmental Pharmacokinetics Data analysis (Summit Research Services, Montrose, Colo.).

[6] = inhaled or intranasal, 20 mg/kg

Sequence of CYP450 3A4 (P08684 whole entry): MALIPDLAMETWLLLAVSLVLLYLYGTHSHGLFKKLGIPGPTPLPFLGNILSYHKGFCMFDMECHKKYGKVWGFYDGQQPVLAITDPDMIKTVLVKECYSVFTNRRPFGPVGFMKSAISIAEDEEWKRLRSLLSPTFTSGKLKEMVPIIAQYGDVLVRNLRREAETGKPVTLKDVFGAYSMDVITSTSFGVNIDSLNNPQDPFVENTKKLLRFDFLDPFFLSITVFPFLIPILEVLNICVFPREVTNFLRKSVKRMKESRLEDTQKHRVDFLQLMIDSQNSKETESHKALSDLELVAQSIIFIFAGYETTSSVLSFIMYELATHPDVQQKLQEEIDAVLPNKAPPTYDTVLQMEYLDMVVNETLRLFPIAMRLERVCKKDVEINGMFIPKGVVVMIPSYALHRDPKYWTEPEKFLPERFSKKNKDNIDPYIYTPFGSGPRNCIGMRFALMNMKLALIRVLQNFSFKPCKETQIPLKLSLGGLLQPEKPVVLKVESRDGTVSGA

## CC(C)(NC(=O)[C@H](N)Cc1c[nH]c2ccccc12)C(=O)O [D-Trp-Aib] (H-[dW]-[Aib]-OH)
[1]
  long-term toxicity: no long-term toxicity
[2]
  D-Trp-Aib concentration after incubation in serum: No decrease
[3]; MTT viability assay and Calcein AM assay
  cytotoxicity towards neuronal primary cell cultures: noncytotoxic
[3]; concentration of up to 150 μM
  neuronal viability compared to the untreated control: did not alter neuronal viability
[4]
  activity in CYP450 screen: None of the results met significance criteria
[5]
  half-life: 1.1 to 1.2 h
[5]; inhaled or intranasal
  bioavailability: 65.5%
[5]; [6]
  AUC(0-inf): 11400 ng·h/mL
  AUC(0-t): 10600 ng·h/mL
  MRT: 0.98 h
  half-life: 1.29 h
[5]; iv, 50 mg/kg
  AUC(0-inf): 40600 ng·h/mL
  AUC(0-t): 40600 ng·h/mL
  MRT: 0.44 h
  Vd: 2.16 L/kg
  bioavailability: 100%
  clearance: 20.5 mL/min/kg
  half-life: 1.22 h
[5]; po, 50 mg/kg
  AUC(0-inf): 15700 ng·h/mL
  AUC(0-t): 15700 ng·h/mL
  Cmax: 9810 ng/mL
  MRT: 1.29 h
  Tmax: 1 h
  bioavailability: 38.7%
  half-life: 1.07 h
